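The compound was tested at five concentrations on cells cultured in 96-well plates, with a 48-hour exposure period. TGI: total growth inhibition.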
Key:
Assay in all cases: inhibition of tumour cell growth, NCI panel, 48 h
786-0 renal = tested on: 786-0 renal
A549 NSCLC = tested on: A549 NSCLC
ACHN renal = tested on: ACHN renal
CCRF-CEM leukemia = tested on: CCRF-CEM leukemia
COLO 205 colon = tested on: COLO 205 colon
DLD-1 colon = tested on: DLD-1 colon
DMS 114 small cell lung = tested on: DMS 114 small cell lung
DMS 273 small cell lung = tested on: DMS 273 small cell lung
EKVX NSCLC = tested on: EKVX NSCLC
HCC-2998 colon = tested on: HCC-2998 colon
HCT-15 colon = tested on: HCT-15 colon
HL-60(TB) leukemia = tested on: HL-60(TB) leukemia
HOP-18 NSCLC = tested on: HOP-18 NSCLC
HOP-92 NSCLC = tested on: HOP-92 NSCLC
HT29 colon = tested on: HT29 colon
IGROV1 ovarian = tested on: IGROV1 ovarian
K-562 leukemia = tested on: K-562 leukemia
KM12 colon = tested on: KM12 colon
KM20L2 colon = tested on: KM20L2 colon
LXFL 529 NSCLC = tested on: LXFL 529 NSCLC
M14 melanoma = tested on: M14 melanoma
M19-MEL melanoma = tested on: M19-MEL melanoma
MALME-3M melanoma = tested on: MALME-3M melanoma
MOLT-4 leukemia = tested on: MOLT-4 leukemia
NCI-H226 lung = tested on: NCI-H226 lung
NCI-H23 lung = tested on: NCI-H23 lung
NCI-H460 lung = tested on: NCI-H460 lung
NCI-H522 lung = tested on: NCI-H522 lung
OVCAR-3 ovarian = tested on: OVCAR-3 ovarian
OVCAR-5 ovarian = tested on: OVCAR-5 ovarian
OVCAR-8 ovarian = tested on: OVCAR-8 ovarian
RPMI-8226 leukemia = tested on: RPMI-8226 leukemia
RXF 393 renal = tested on: RXF 393 renal
SF-268 CNS = tested on: SF-268 CNS
SF-295 CNS = tested on: SF-295 CNS
SF-539 CNS = tested on: SF-539 CNS
SK-MEL-2 melanoma = tested on: SK-MEL-2 melanoma
SK-MEL-28 melanoma = tested on: SK-MEL-28 melanoma
SK-MEL-5 melanoma = tested on: SK-MEL-5 melanoma
SK-OV-3 ovarian = tested on: SK-OV-3 ovarian
SN12C renal = tested on: SN12C renal
SNB-19 CNS = tested on: SNB-19 CNS
SR leukemia = tested on: SR leukemia
SW-620 colon = tested on: SW-620 colon
TK-10 renal = tested on: TK-10 renal
U251 CNS = tested on: U251 CNS
UACC-257 melanoma = tested on: UACC-257 melanoma
UO-31 renal = tested on: UO-31 renal
A498 renal = tested on: A498 renal
CAKI-1 renal = tested on: CAKI-1 renal
HCT-116 colon = tested on: HCT-116 colon
HOP-62 NSCLC = tested on: HOP-62 NSCLC
LOX IMVI melanoma = tested on: LOX IMVI melanoma
OVCAR-4 ovarian = tested on: OVCAR-4 ovarian
SNB-75 CNS = tested on: SNB-75 CNS
SNB-78 CNS = tested on: SNB-78 CNS
UACC-62 melanoma = tested on: UACC-62 melanoma
BT-549 breast = tested on: BT-549 breast
DU-145 prostate = tested on: DU-145 prostate
HS 578T breast = tested on: HS 578T breast
MCF7 breast = tested on: MCF7 breast
MDA-MB-231 breast = tested on: MDA-MB-231 breast
MDA-MB-435 = tested on: MDA-MB-435
MDA-N = tested on: MDA-N
NCI/ADR-RES ovarian = tested on: NCI/ADR-RES ovarian
PC-3 prostate = tested on: PC-3 prostate
T-47D breast = tested on: T-47D breast
XF 498 CNS = tested on: XF 498 CNS

Measured: TGI

C#C[C@]1(O)CCCC2=CC(=O)CC[C@@]21C
not listed: A498 renal | CAKI-1 renal | HCT-116 colon | HOP-62 NSCLC | LOX IMVI melanoma | OVCAR-4 ovarian | SNB-75 CNS | SNB-78 CNS | UACC-62 melanoma | BT-549 breast | DU-145 prostate | HS 578T breast | MCF7 breast | MDA-MB-231 breast | MDA-MB-435 | MDA-N | NCI/ADR-RES ovarian | PC-3 prostate | T-47D breast | XF 498 CNS
> 100 µM: all other assays above

CCCCCCCOc1ccc(/C=C\c2cc[n+](CCCCCCCC[n+]3ccc(/C=C\c4ccc(OCCCCCCC)cc4)cc3)cc2)cc1
41.5 µM: A549 NSCLC
24.6 µM: U251 CNS
58.7 µM: COLO 205 colon
36 µM: DMS 114 small cell lung
41.2 µM: UO-31 renal
34.1 µM: HCT-15 colon
27.7 µM: SK-MEL-5 melanoma
34.8 µM: LXFL 529 NSCLC
17 µM: NCI-H460 lung
33.3 µM: IGROV1 ovarian
28.4 µM: HOP-18 NSCLC
63.1 µM: KM20L2 colon
28.7 µM: HT29 colon
33.1 µM: OVCAR-3 ovarian
32 µM: 786-0 renal
57 µM: SN12C renal
44.6 µM: SF-268 CNS
46.5 µM: OVCAR-5 ovarian
74.3 µM: SK-MEL-2 melanoma
67 µM: DLD-1 colon
32.2 µM: SK-MEL-28 melanoma
63.7 µM: CAKI-1 renal
10.7 µM: NCI-H522 lung
34.5 µM: M14 melanoma
33.7 µM: MALME-3M melanoma
28.2 µM: KM12 colon
71.1 µM: DMS 273 small cell lung
62.2 µM: MOLT-4 leukemia
26.5 µM: HCT-116 colon
55.5 µM: OVCAR-8 ovarian
43.7 µM: TK-10 renal
80.8 µM: A498 renal
57.8 µM: SK-OV-3 ovarian
not listed: HCC-2998 colon | K-562 leukemia | NCI-H226 lung | SR leukemia | SW-620 colon | BT-549 breast | DU-145 prostate | HS 578T breast | MCF7 breast | MDA-MB-231 breast | MDA-MB-435 | MDA-N | NCI/ADR-RES ovarian | PC-3 prostate | T-47D breast | XF 498 CNS
> 100 µM: all other assays above

CC(=O)Nc1ccc(C(O)/C(=N/N)c2nc3ccc(Cl)cc3[nH]c2=O)cc1 (stereo not given)
not listed: DLD-1 colon | DMS 114 small cell lung | DMS 273 small cell lung | HOP-18 NSCLC | K-562 leukemia | KM20L2 colon | LXFL 529 NSCLC | M19-MEL melanoma | RPMI-8226 leukemia | SK-OV-3 ovarian | SNB-78 CNS | XF 498 CNS
> 100 µM: all other assays above

O=C(O)c1cc2c(ncc3c(=O)n(-c4ccccc4)[nH]c32)s1
not listed: 786-0 renal | HL-60(TB) leukemia | SF-295 CNS | SK-MEL-5 melanoma | SNB-19 CNS | UACC-257 melanoma | A498 renal | SNB-75 CNS | SNB-78 CNS | BT-549 breast | DU-145 prostate | HS 578T breast | MCF7 breast | MDA-MB-231 breast | MDA-MB-435 | MDA-N | NCI/ADR-RES ovarian | PC-3 prostate | T-47D breast
> 100 µM: all other assays above
